Results reported in patent US20120329711A1, “GLP-1 RECEPTOR AGONIST COMPOUNDS WITH A MODIFIED N-TERMINUS” (Nordisk A/S, priority 2009, published 2012).

Legend:
human GLP-1 receptor [1] = target: T1, human GLP-1 receptor (Homo sapiens, UniProt P43220); assay: In vitro potency: stimulation of cAMP formation in membranes expressing the human GLP-1 receptor (AlphaScreen cAMP Assay); type: biochemical; set-up: expressed in transfected cells; membranes; conditions: purified plasma membranes from BHK467-12A (tk-ts13) expressing the human GLP-1 receptor
Procedure: Purified plasma membranes from a stable transfected cell line, BHK467-12A (tk-ts13), expressing the human GLP-1 receptor were stimulated with the GLP-1 receptor agonist derivative in question, and the potency of cAMP production was measured using the AlphaScreen™ cAMP Assay Kit from Perkin Elmer Life Sciences. The basic principle of The AlphaScreen Assay is a competition between endogenous cAMP and exogenously added biotin-cAMP. The capture of cAMP is achieved by using a specific antibody conjugated to acceptor beads.
A stable transfected cell line and a high expressing clone were selected for screening. The cells were grown at 5% CO2 in DMEM, 5% FCS, 1% Pen/Strep (Penicillin/Streptomycin) and 0.5 mg/ml of the selection marker G418.
Cells at approximate 80% confluence were washed 2× with PBS and harvested with Versene (aqueous solution of the tetrasodium salt of ethylenediaminetetraacetic acid), centrifuged 5 min at 1000 rpm and the supernatant removed. The additional steps were all made on ice. The cell pellet was homogenised by the Ultrathurax for 20-30 sec. in 10 ml of Buffer 1 (20 mM Na-HEPES, 10 mM EDTA, pH=7.4), centrifuged 15 min at 20.000 rpm and the pellet resuspended in 10 ml of Buffer 2 (20 mM Na-HEPES, 0.1 mM EDTA, pH=7.4). […] The protein concentration was determined and the membranes stored at −80° C. until use. […]
Target sequence in this assay (P43220 24-463): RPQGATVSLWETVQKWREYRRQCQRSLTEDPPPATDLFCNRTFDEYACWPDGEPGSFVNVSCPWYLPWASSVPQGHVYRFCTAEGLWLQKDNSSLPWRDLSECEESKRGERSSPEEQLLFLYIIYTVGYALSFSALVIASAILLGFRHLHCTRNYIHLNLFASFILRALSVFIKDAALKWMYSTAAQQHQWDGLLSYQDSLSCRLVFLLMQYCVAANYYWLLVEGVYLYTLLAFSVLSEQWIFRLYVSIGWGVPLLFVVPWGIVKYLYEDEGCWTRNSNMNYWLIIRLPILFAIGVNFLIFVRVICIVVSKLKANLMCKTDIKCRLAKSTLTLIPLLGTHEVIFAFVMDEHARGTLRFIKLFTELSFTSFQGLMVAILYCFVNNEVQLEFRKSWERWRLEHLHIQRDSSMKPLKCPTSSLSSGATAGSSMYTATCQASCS

human GLP-1 receptor [2] = target: T1, human GLP-1 receptor; assay: GLP-1 receptor binding: displacement of 125I-GLP-1 (SPA) at low and high albumin; set-up: expressed in transfected cells; membranes; conditions: 2.0% HSA; displacement of 125I-GLP-1, BHK tk-ts13 membranes
Procedure: The binding affinity of the GLP-1 receptor agonist derivatives of Examples 1-12 to the human GLP-1 receptor was measured by way of their ability to displace of ^125I-GLP-1 from the receptor.
In order to test the binding of the derivatives to albumin, the assay was performed with a low concentration of albumin (0.005%—corresponding to the residual amount thereof in the tracer), as well as with a high concentration of albumin (2.0% added).
Species (in vitro): Hamster
Biological End Point: Receptor Binding
A stable transfected cell line and a high expressing clone were selected for screening. The cells were grown at 5% CO2 in DMEM, 10% FCS, 1% Pen/Strep (Penicillin/Streptomycin) and 1.0 mg/ml of the selection marker G418.
The cells (approx. 80% confluence) were washed twice in PBS and harvested with Versene (aqueous solution of the tetrasodium salt of ethylenediaminetetraacetic acid), following which they were separated by centrifugation at 1000 rpm for 5 min. The cells/cell pellet must be kept on ice to the extent possible in the subsequent steps. […] The resulting pellet was resuspended in Buffer 2, and the protein concentration was determined. […]
Test compounds, membranes, SPA-particles and [^125I]-GLP-1(7-36)NH2 were diluted in assay buffer. […] The plates were centrifuged (1500 rpm, 10 min) and counted in Topcounter. […]

EC50 (human GLP-1 receptor [1]): > 0.008 µM
IC50 (human GLP-1 receptor [2]): > 0.8 µM
Compound: CC[C@H](C)[C@H](NC(=O)[C@H](Cc1ccccc1)NC(=O)[C@H](CCC(=O)O)NC(=O)[C@H](CCCCNC(=O)COCCOCCNC(=O)COCCOCCNC(=O)CC[C@H](NC(=O)CCCCCCCCCCCCCCCCC(=O)O)C(=O)O)NC(=O)[C@H](C)NC(=O)[C@H](C)NC(=O)[C@H](CCC(N)=O)NC(=O)CNC(=O)[C@H](CCC(=O)O)NC(=O)[C@H](CC(C)C)NC(=O)[C@H](Cc1ccc(O)cc1)NC(=O)[C@H](CO)NC(=O)[C@H](CO)NC(=O)[C@@H](NC(=O)[C@H](CC(=O)O)NC(=O)[C@H](CO)NC(=O)[C@@H](NC(=O)[C@H](Cc1ccccc1)NC(=O)[C@@H](NC(=O)CNC(=O)[C@H](CCC(=O)O)NC(=O)CCCC(=O)c1ccccc1)[C@@H](C)O)[C@@H](C)O)C(C)C)C(=O)N[C@@H](C)C(=O)N[C@@H](Cc1c[nH]c2ccccc12)C(=O)N[C@@H](CC(C)C)C(=O)N[C@H](C(=O)N[C@@H](CCCNC(=N)N)C(=O)NCC(=O)N[C@@H](CCCNC(=N)N)C(=O)NCC(=O)O)C(C)C [Example 11, N^9-(5-oxo-5-phenylpentanoyl), N^ε26-[2-[2-[2-[[2-[2-[2-[[(4S)-4-carboxy-4-(17-carboxyheptadecanoylamino)butanoyl]amino]ethoxy]ethoxy]acetyl]amino]ethoxy]ethoxy]acetyl]-[Arg^34]-GLP-1-(9-37)-peptide]
